# According to publication PMC3630091, “A Mechanistic Paradigm for Broad-Spectrum Antivirals that Target Virus-Cell Fusion” (PLoS Pathogens, 2013):
# Like-named read-outs stand apart in the source and are kept apart here.
# How the values were obtained:
# [1] = tested on: HIV; assay: microbe, parasite or virus in culture; assay type: cell-based; conditions: Human immunodeficiency virus 1, 10 min
# [2] = tested on: NDV; assay: microbe, parasite or virus in culture; assay type: cell-based, Newcastle disease virus; conditions: avian paramyxovirus 1, 10 min
# [3] = tested on: EBOV; assay: microbe, parasite or virus in culture; assay type: cell-based, Ebola Zaire; conditions: Zaire ebolavirus, 10 min, read-out: IC50 EBOV
# [4] = tested on: H1N1; assay: microbe, parasite or virus in culture; assay type: cell-based, Influenza A A/PR/8/34 (H1N1); conditions: read-out: IC50 H1N1
# [5] = tested on: NiV; assay: microbe, parasite or virus in culture; assay type: cell-based, Nipah virus Malaysia
# [6] = tested on: HeV; assay: microbe, parasite or virus in culture; assay type: cell-based, Hendra virus; conditions: Henipavirus hendraense, 10 min, read-out: IC50 HeV
# [7] = tested on: RVFV; assay: microbe, parasite or virus in culture; assay type: cell-based, Rift Valley fever MP-12 (vaccine strain); conditions: Rift Valley fever virus, 10 min, read-out: IC50 RVFV
# [8] = tested on: SFV; assay: microbe, parasite or virus in culture; assay type: cell-based; conditions: Semliki Forest virus, BHK, 10 min, read-out: IC50 SFV
# [9] = tested on: HSV; assay: microbe, parasite or virus in culture; assay type: cell-based, Herpes simplex virus-1; conditions: Human alphaherpesvirus 1, 10 min
# [10] = tested on: CMV; assay: microbe, parasite or virus in culture; assay type: cell-based, Cytomegalovirus (strain T3259)
# [11] = tested on: VSV; assay: microbe, parasite or virus in culture; assay type: cell-based; conditions: Vesicular stomatitis virus, 10 min, read-out: IC50 VSV
# [12] = tested on: Ad5; assay type: cell-based, Adenovirus serotype 5; conditions: non-enveloped virus; 10 min white light exposure of treated virus
# [13] = tested on: RABV; assay: microbe, parasite or virus in culture; assay type: cell-based; conditions: Lyssavirus rabies, 10 min, read-out: IC50 RABV
# [14] = Absorbance spectra / UV-visible spectra integration; assay type: physicochemical
# [15] = Singlet oxygen quantum yield measurements; assay type: physicochemical
# [16] = Singlet oxygen quenching measurements; assay type: physicochemical; conditions: 355 nm with C60 as external sensitizer; error is one standard deviation
# [17] = tested on: HIV-1JR-CSF; assay type: cell-based
# [18] = tested on: RVFV ZH501; assay type: in vivo, Balb/c mice
# [19] = Clinical observations after single dose in PK study; assay type: in vivo, female Balb/c mice; conditions: single dose 10 mg/kg ip
# Procedure: Dose administration. […] These mice were replaced and the dose level was reduced to 5 mg/kg. […] Hypoactivity was the only clinical observation noted in some of the mice treated with the 3 test articles at 10 and 100 mg/kg po. […] These animals were replaced and administered with the lower ip dose level of 1.25 mg/kg and underwent blood collections. Mice received single ip doses of 1.25 mg/kg (JL109 and JL118) or 5 mg/kg (JL122) and po doses of 10 mg/kg (JL109, JL118, JL122), 50 mg/kg (JL109, JL118), or 100 mg/kg (JL109, JL118, JL122).
# [20] = in vitro; conditions: human
# [21] = Pharmacokinetics in mice; conditions: for bioavailability: female, Balb/c, mouse, in vivo
# [22] = Membrane partition into POPC LUV (fluorescence)
# [23] = Membrane partition into HIV membrane-like mixture LUV (fluorescence)
compound,measurement,setting,value
"CCN1C(=S)O/C(=C\c2ccc(-c3ccccc3OC)o2)C1=S [JL103, (Z) 3-Ethyl-5-[5-(2-methoxyphenyl)-furan-2-ylmethylene]oxazolid-ine-2,4-dithione]",IC50,[1]; read-out: IC50 HIV,13 nM
same,IC50,[1]; read-out: IC50 ± SD (nM) (N=x) HIV,12.2 ± 9.7 nM
same,IC50,[2]; read-out: IC50 NDV,4 nM
same,IC50,[2]; read-out: IC50 ± SD (nM) (N=x) NDV,5.7 ± 6.4 nM
same,IC50,[3],185 nM
same,IC50,"[4]; Influenza A virus, H1N1, 10 min",1.7 nM
same,IC50,[4],2 nM
same,IC50,"[5]; Henipavirus nipahense, 10 min, read-out: IC50 NiV, 10 min white light exposure of treated virus",3.9 nM
same,IC50,"[5]; read-out: IC50 NiV, 10 min white light exposure of treated virus",4 nM
same,IC50,[6],0.5 nM
same,IC50,[7],3 nM
same,IC50,[8],44 nM
same,IC50,[9]; read-out: IC50 HSV,2 nM
same,IC50,[9]; read-out: IC50 ± SD (nM) (N=x) HSV,1.9 ± 2.5 nM
same,IC50,"[10]; Human betaherpesvirus 5, 10 min, read-out: IC50 CMV, 10 min white light exposure of treated virus",5 nM
same,IC50,"[10]; read-out: IC50 CMV, 10 min white light exposure of treated virus",4 nM
same,IC50,[11],11 nM
same,IC50 Ad5,[12],inactive
same,IC50,[13],260 nM
same,Abs Max (λmax),[14]; 100 µM in DMSO,515 nm
same,AUC (400-750 nm),"[14]; integrated absorption divided by concentration, normalized relative to LJ001 (LJ001 = 100)",153
same,"total integrated absorption (AUC), times that of LJ001",[14]; λ = 400 to 750 nm,1.53 times
same,"QY at 355 nm, times higher than LJ001",[15]; 355 nm,about 2 times
same,1O2 QY 355 nm,"[15]; in CD2Cl2, excitation 355 nm, error is one standard deviation",0.36 ± 0.02
same,1O2 QY 532 nm,"[15]; in CD2Cl2, excitation 532 nm, error is one standard deviation",0.30 ± 0.03
same,kT × 10-7,[16],0.636 ± 0.030 M-1s-1
same,reduction of antiviral activity at physiological Hct,[17],> 50%
same,time-to-death / survival compared to untreated controls,"[18]; 20 pfu RVFV ZH501 IP, IP once a day for 7 days from 1 h post-challenge, JL118 1.25 mg/kg, JL122 and JL103 10 mg/kg",no significant effect on survival
same,Median survival,"[18]; 50 pfu RVFV ZH501 IP, 10 mg/kg IP at 1, 12, 24 and 48 h post-challenge, n = 5",3 days
same,clinical observations,[19],appeared normal
same,CC50,[20],9140 nM
same,bioavailability,"[21]; ip, 10 mg/kg",~50%
same,bioavailability,"[21]; po, 100 mg/kg",3.1 to 105%
same,improvements in relevant pharmacokinetic (PK) parameters compared to LJ001,"[21]; half-life, AUC, bioavailability, clearance",> 10 fold
same,"Kp at 10 min, 50 µM",[22],580
same,IL / Iw,"[22]; POPC LUV, fluorescence intensity ratio from curve fitting",14.78
same,"Kp at 10 min, 50 µM",[23],310
same,IL / Iw,"[23]; HIV-like mixture LUV, fluorescence intensity ratio from curve fitting",68.29
